Reference: PubChem BioAssay AID1259407 (Chemical Carcinogenesis Research Information System (CCRIS), 2018)
Active and inactive are the calls of the source. The rule behind the calls is not given here.

System: CCRIS mutagenicity, Ames/micronucleus/aberration tests
Test: CCRIS mutagenicity studies
[1] = Test System: AMES SALMONELLA TYPHIMURIUM, Strain/Indicator: TA97, Metabolic Activation: NONE, Method: PREINCUBATION
[2] = Test System: AMES SALMONELLA TYPHIMURIUM, Strain/Indicator: TA100, Metabolic Activation: NONE, Method: STANDARD PLATE
[3] = Test System: AMES SALMONELLA TYPHIMURIUM, Strain/Indicator: TA98, Metabolic Activation: NONE, Method: STANDARD PLATE
[4] = Test System: AMES SALMONELLA TYPHIMURIUM, Strain/Indicator: TA1535, Metabolic Activation: NONE, Method: STANDARD PLATE

## Clc1ccc(COC(Cn2ccnc2)c2ccc(Cl)cc2Cl)cc1 (stereo not given)
End Point: IN VITRO MICRONUCLEUS, Test System: HAMSTER V79 CELLS, Metabolic Activation: NONE
  mutagenic call: inactive; negative
Test System: AMES SALMONELLA TYPHIMURIUM, Strain/Indicator: TA97, Metabolic Activation: HAMSTER, LIVER, S-9, AROCLOR 1254 (10 OR 30%), Method: PREINCUBATION
  mutagenic call: inactive; negative
[1]
  mutagenic call: inactive; negative
Test System: AMES SALMONELLA TYPHIMURIUM, Strain/Indicator: TA97, Metabolic Activation: RAT, LIVER, S-9, AROCLOR 1254 (10 OR 30%), Method: PREINCUBATION
  mutagenic call: inactive; negative
Test System: AMES SALMONELLA TYPHIMURIUM, Strain/Indicator: TA98, Metabolic Activation: HAMSTER, LIVER, S-9, AROCLOR 1254 (10 OR 30%), Method: PREINCUBATION
  mutagenic call: inactive; negative
Test System: AMES SALMONELLA TYPHIMURIUM, Strain/Indicator: TA98, Metabolic Activation: NONE, Method: PREINCUBATION
  mutagenic call: inactive; negative
Test System: AMES SALMONELLA TYPHIMURIUM, Strain/Indicator: TA98, Metabolic Activation: RAT, LIVER, S-9, AROCLOR 1254 (10 OR 30%), Method: PREINCUBATION
  mutagenic call: inactive; negative
Test System: AMES SALMONELLA TYPHIMURIUM, Strain/Indicator: TA100, Metabolic Activation: HAMSTER, LIVER, S-9, AROCLOR 1254 (10 OR 30%), Method: PREINCUBATION
  mutagenic call: inactive; negative
Test System: AMES SALMONELLA TYPHIMURIUM, Strain/Indicator: TA100, Metabolic Activation: NONE, Method: PREINCUBATION
  mutagenic call: inactive; negative
Test System: AMES SALMONELLA TYPHIMURIUM, Strain/Indicator: TA100, Metabolic Activation: RAT, LIVER, S-9, AROCLOR 1254 (10 OR 30%), Method: PREINCUBATION
  mutagenic call: inactive; negative
Test System: AMES SALMONELLA TYPHIMURIUM, Strain/Indicator: TA1535, Metabolic Activation: HAMSTER, LIVER, S-9, AROCLOR 1254 (10 OR 30%), Method: PREINCUBATION
  mutagenic call: inactive; negative
Test System: AMES SALMONELLA TYPHIMURIUM, Strain/Indicator: TA1535, Metabolic Activation: NONE, Method: PREINCUBATION
  mutagenic call: inactive; negative
Test System: AMES SALMONELLA TYPHIMURIUM, Strain/Indicator: TA1535, Metabolic Activation: RAT, LIVER, S-9, AROCLOR 1254 (10 OR 30%), Method: PREINCUBATION
  mutagenic call: inactive; negative

## CCCCOc1cc(C)ccc1C(=O)NOC(C)=O
[2]
  mutagenic call: active; positive
Test System: AMES SALMONELLA TYPHIMURIUM, Strain/Indicator: TA100, Metabolic Activation: RAT, S-9, AROCLOR, Method: STANDARD PLATE
  mutagenic call: active; positive

## COc1cc(N)c(OC)cc1N
[3]
  mutagenic call: inactive; negative
Test System: AMES SALMONELLA TYPHIMURIUM, Strain/Indicator: TA98, Metabolic Activation: RAT, LIVER, S-9, AROCLOR 1254, Method: STANDARD PLATE
  mutagenic call: active; positive
[2]
  mutagenic call: inactive; negative
Test System: AMES SALMONELLA TYPHIMURIUM, Strain/Indicator: TA100, Metabolic Activation: RAT, LIVER, S-9, AROCLOR 1254, Method: STANDARD PLATE
  mutagenic call: active; positive
[4]
  mutagenic call: inactive; negative
Test System: AMES SALMONELLA TYPHIMURIUM, Strain/Indicator: TA1535, Metabolic Activation: RAT, LIVER, S-9, AROCLOR 1254, Method: STANDARD PLATE
  mutagenic call: inactive; negative
Test System: AMES SALMONELLA TYPHIMURIUM, Strain/Indicator: TA1537, Metabolic Activation: NONE, Method: STANDARD PLATE
  mutagenic call: inactive; negative
Test System: AMES SALMONELLA TYPHIMURIUM, Strain/Indicator: TA1537, Metabolic Activation: RAT, LIVER, S-9, AROCLOR 1254, Method: STANDARD PLATE
  mutagenic call: active; positive
Test System: AMES SALMONELLA TYPHIMURIUM, Strain/Indicator: TA1538, Metabolic Activation: NONE, Method: STANDARD PLATE
  mutagenic call: active; positive
Test System: AMES SALMONELLA TYPHIMURIUM, Strain/Indicator: TA1538, Metabolic Activation: RAT, LIVER, S-9, AROCLOR 1254, Method: STANDARD PLATE
  mutagenic call: active; positive

## Cc1cc2c(c3ccc4c(O)c(O)ccc4c13)CCC2=O
Test System: AMES SALMONELLA TYPHIMURIUM, Strain/Indicator: TA100, Metabolic Activation: RAT, LIVER, MICROSOMES, 15,16-DIHYDRO-11-METHYL-17(H)-CYCLOPENTA[A] PHENANTHREN-17-ONE, Method: STANDARD PLATE
  mutagenic call: inactive; negative
Test System: AMES SALMONELLA TYPHIMURIUM, Strain/Indicator: TA100, Metabolic Activation: RAT, LIVER, MICROSOMES, BENZO[A]PYRENE, Method: STANDARD PLATE
  mutagenic call: active; positive
Test System: AMES SALMONELLA TYPHIMURIUM, Strain/Indicator: TA100, Metabolic Activation: RAT, LIVER, MICROSOMES, CLOFIBRATE, Method: STANDARD PLATE
  mutagenic call: inactive; negative
Test System: AMES SALMONELLA TYPHIMURIUM, Strain/Indicator: TA100, Metabolic Activation: RAT, LIVER, MICROSOMES, DEXAMETHASONE, Method: STANDARD PLATE
  mutagenic call: inactive; negative
Test System: AMES SALMONELLA TYPHIMURIUM, Strain/Indicator: TA100, Metabolic Activation: RAT, LIVER, MICROSOMES, ISONIAZID, Method: STANDARD PLATE
  mutagenic call: inactive; negative
Test System: AMES SALMONELLA TYPHIMURIUM, Strain/Indicator: TA100, Metabolic Activation: RAT, LIVER, MICROSOMES, PHENOBARBITONE, Method: STANDARD PLATE
  mutagenic call: inactive; negative
Test System: AMES SALMONELLA TYPHIMURIUM, Strain/Indicator: TA100, Metabolic Activation: RAT, LIVER, MICROSOMES, Method: STANDARD PLATE
  mutagenic call: inactive; negative

## CS(=O)(=O)OC[C@H](O)[C@@H](O)COS(C)(=O)=O
[2]
  mutagenic call: active; positive
[4]
  mutagenic call: active; positive
Test System: AMES SALMONELLA TYPHIMURIUM, Strain/Indicator: TA7004, Metabolic Activation: NONE, Method: STANDARD PLATE
  mutagenic call: active; positive
Test System: AMES SALMONELLA TYPHIMURIUM, Strain/Indicator: TA7005, Metabolic Activation: NONE, Method: STANDARD PLATE
  mutagenic call: inactive; negative
Test System: CHINESE HAMSTER OVARY, Strain/Indicator: AS52/6-THIOGUANINE, Metabolic Activation: NONE
  mutagenic call: active; positive

## O=C(O)CC(O)C(=O)O (stereo not given)
[1]
  mutagenic call: inactive; negative
Test System: AMES SALMONELLA TYPHIMURIUM, Strain/Indicator: TA97, Metabolic Activation: NONE, Method: STANDARD PLATE
  mutagenic call: inactive; negative
Test System: AMES SALMONELLA TYPHIMURIUM, Strain/Indicator: TA97, Metabolic Activation: RAT, LIVER, S-9, AROCLOR 1254, Method: PREINCUBATION
  mutagenic call: inactive; negative
Test System: AMES SALMONELLA TYPHIMURIUM, Strain/Indicator: TA97, Metabolic Activation: RAT, LIVER, S-9, PHENOBARBITAL, Method: STANDARD PLATE
  mutagenic call: inactive; negative
[3]
  mutagenic call: inactive; negative
Test System: AMES SALMONELLA TYPHIMURIUM, Strain/Indicator: TA98, Metabolic Activation: RAT, LIVER, S-9, PHENOBARBITAL, Method: STANDARD PLATE
  mutagenic call: inactive; negative
[2]
  mutagenic call: inactive; negative
Test System: AMES SALMONELLA TYPHIMURIUM, Strain/Indicator: TA100, Metabolic Activation: RAT, LIVER, S-9, PHENOBARBITAL, Method: STANDARD PLATE
  mutagenic call: inactive; negative
Test System: AMES SALMONELLA TYPHIMURIUM, Strain/Indicator: TA102, Metabolic Activation: NONE, Method: PREINCUBATION
  mutagenic call: inactive; negative
Test System: AMES SALMONELLA TYPHIMURIUM, Strain/Indicator: TA102, Metabolic Activation: RAT, LIVER, S-9, AROCLOR 1254, Method: PREINCUBATION
  mutagenic call: inactive; negative
Test System: AMES SALMONELLA TYPHIMURIUM, Strain/Indicator: TA104, Metabolic Activation: NONE, Method: STANDARD PLATE
  mutagenic call: inactive; negative
Test System: AMES SALMONELLA TYPHIMURIUM, Strain/Indicator: TA104, Metabolic Activation: RAT, LIVER, S-9, PHENOBARBITAL, Method: STANDARD PLATE
  mutagenic call: inactive; negative

## [Cl][Sn]([Cl])([c]1ccccc1)[c]1ccccc1
Test System: AMES SALMONELLA TYPHIMURIUM, Strain/Indicator: TA98, Metabolic Activation: NONE, Method: SUSPENSION/PLATE
  mutagenic call: inactive; negative
Test System: AMES SALMONELLA TYPHIMURIUM, Strain/Indicator: TA100, Metabolic Activation: NONE, Method: SUSPENSION/PLATE
  mutagenic call: inactive; negative

## Cc1cc2ccccc2c2cc3c(cc12)[C@H](O)[C@@H](O)C=C3
Test System: AMES SALMONELLA TYPHIMURIUM, Strain/Indicator: TA100, Metabolic Activation: RAT, LIVER, S-9, AROCLOR 1254, Method: PREINCUBATION
  mutagenic call: active; positive

## CC[C@H](C)OS(C)(=O)=O
[2]
  mutagenic call: active; positive
[4]
  mutagenic call: active; positive
Test System: CHINESE HAMSTER V-79, Strain/Indicator: V-79/6-THIOGUANINE, Metabolic Activation: NONE
  mutagenic call: active; positive
